Test results taken from US9107415B2, “2-(substituted-phenyl)-cyclopentane-1,3-dione compounds, and derivatives thereof” (Syngenta Limited, priority 2011, dated 2015).

Tests used:
Assay type in all cases: in vivo
Setaria faberi (SETFA) [1] = assay: Biological Example 1 glasshouse screen, pre-emergence herbicidal activity; conditions: application rate 250 g/ha, evaluated after 13 days
Procedure: (§1) Seeds of a variety of test species were sown in standard soil in pots. After cultivation for one day (pre-emergence) or after 8 days cultivation (post-emergence) under controlled conditions in a glasshouse (at 24/16°C., day/night; 14 hours light; 65% humidity), the plants were sprayed with an aqueous spray solution derived from the formulation of the “technical”(i.e. unformulated) active ingredient in acetone/water (50:50) solution containing 0.5% Tween 20 (polyoxyethylene sorbitan monolaurate, CAS Registry Number 9005-64-5). The test plants were then grown in a glasshouse under controlled conditions in a glasshouse (at 24/16°C., day/night; 14 hours light; 65% humidity) and watered twice daily. After 13 days for pre- or post-emergence, the test was evaluated visually, and an assessed percentage phytotoxicity score given for each herbicidal application on each plant/weed species (with 100%=total damage to plant; 0%=no damage to plant).
(§2) Test plants: Alopecurus myosuroides (ALOMY), Setaria faberi (SETFA), Echinochloa crus-galli (ECHCG), Solanum nigrum (SOLNI), Amaranthus retroflexus (AMARE) and Ipomoea hederacea (IPOHE). ALOMY, SETFA and ECHCG are grassy monocotyledonous weeds. SOLNI, AMARE and IPOHE are dicotyledonous (broadleaved) weeds.

Solanum nigrum (SOLNI) [2] = assay: as above; conditions: application rate 250 g/ha, evaluated after 13 days
Procedure: as §1, §2

[3] = system: Ipomoea hederacea (IPOHE); assay: as above; conditions: application rate 250 g/ha, evaluated after 13 days
Procedure: as §1, §2

[4] = system: Amaranthus retroflexus (AMARE); assay: as above; conditions: application rate 250 g/ha, evaluated after 13 days
Procedure: as §1, §2

Setaria faberi (SETFA) [5] = assay: Biological Example 1 glasshouse screen, post-emergence herbicidal activity; conditions: application rate 250 g/ha, evaluated after 13 days
Procedure: as §1, §2

Solanum nigrum (SOLNI) [6] = assay: as above; conditions: application rate 250 g/ha, evaluated after 13 days
Procedure: as §1, §2

[7] = system: Ipomoea hederacea (IPOHE); assay: as above; conditions: application rate 250 g/ha, evaluated after 13 days
Procedure: as §1, §2

[8] = system: Amaranthus retroflexus (AMARE); assay: as above; conditions: application rate 250 g/ha, evaluated after 13 days
Procedure: as §1, §2

[9] = system: Echinochloa crus-galli (ECHCG); assay: as above; conditions: 312 h, application rate 250 g/ha, evaluated after 13 days, read-out: ECHCG percentage phytotoxicity
Summary of the method: (§3)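 Phytotoxicity was scored visually as % damage (100 = total, 0 = none) 13 days after spraying. Spray was acetone/water (50:50) with 0.5% Tween 20, applied to soil-sown pots 1 day (pre-emergence) or 8 days (post-emergence) after sowing. Glasshouse at 24/16°C, 14 h light, 65% humidity.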

[10] = system: Alopecurus myosuroides (ALOMY); assay: as above; conditions: 312 h, application rate 250 g/ha, evaluated after 13 days, read-out: ALOMY percentage phytotoxicity
Summary of the method: as §3

Setaria faberi (SETFA) [11] = assay: Biological Example 2 post-emergence herbicidal activity (comparative data)
Procedure: as §1
(§4) Comparative herbicidal data are given for certain exemplified compounds with 4-(prop-1-ynyl)-2,6-dimethylphenyl or 4-(chloroethynyl)-2,6-dimethylphenyl headgroups, compared to the corresponding comparative compounds with 4-ethynyl-2,6-dimethylphenyl headgroups, as follows.
(§5) Except where specified otherwise, the glasshouse screen for herbicidal activity is substantially the same as that presented in Biological Example 1 hereinabove. The weed abbreviations are as defined in Biological Example 1.

[12] = system: Echinochloa crus-galli (ECHCG); assay: as above; conditions: 312 h, read-out: ECHCG percentage phytotoxicity; for pest or weed control at 15.625 g/ha: 15.625 g/ha application rate; for pest or weed control at 62.5 g/ha: 62.5 g/ha application rate
Procedure: as §1, §4, §5

[13] = system: Alopecurus myosuroides (ALOMY); assay: as above; conditions: 312 h, read-out: ALOMY percentage phytotoxicity; for pest or weed control at 15.625 g/ha: 15.625 g/ha application rate; for pest or weed control at 62.5 g/ha: 62.5 g/ha application rate
Procedure: as §1, §4, §5

[14] = system: Echinochloa crus-galli (ECHCG); assay: Biological Example 1 glasshouse screen, pre-emergence herbicidal activity; conditions: 312 h, application rate 250 g/ha, evaluated after 13 days, read-out: ECHCG percentage phytotoxicity
Summary of the method: as §3

[15] = system: Alopecurus myosuroides (ALOMY); assay: as above; conditions: 312 h, application rate 250 g/ha, evaluated after 13 days, read-out: ALOMY percentage phytotoxicity
Summary of the method: as §3

Structure (SMILES): Cc1cc(C#CCl)cc(C)c1C1C(=O)CCC1=O [Compound A-16]
- SEFTA percentage phytotoxicity (Setaria faberi (SETFA) [1]): 90%
- SOLNI percentage phytotoxicity (Solanum nigrum (SOLNI) [2]): 10%
- IPOHE percentage phytotoxicity [3]: 0%
- AMARE percentage phytotoxicity [4]: 40%
- SEFTA percentage phytotoxicity (Setaria faberi (SETFA) [5]): 70%
- SOLNI percentage phytotoxicity (Solanum nigrum (SOLNI) [6]): 20%
- IPOHE percentage phytotoxicity [7]: 10%
- AMARE percentage phytotoxicity [8]: 10%
- pest or weed control at 250 g/ha [9]: 100%
- pest or weed control at 250 g/ha [10]: 50%
- SETFA percentage phytotoxicity (Setaria faberi (SETFA) [11]; 15.625 g/ha application rate): 0%
- SETFA percentage phytotoxicity (Setaria faberi (SETFA) [11]; 62.5 g/ha application rate): 80%
- pest or weed control at 15.625 g/ha [12]: 70%
- pest or weed control at 62.5 g/ha [12]: 90%
- pest or weed control at 15.625 g/ha [13]: 10%
- pest or weed control at 62.5 g/ha [13]: 10%
- pest or weed control at 250 g/ha [14]: 100%
- pest or weed control at 250 g/ha [15]: 50%

Structure (SMILES): Cc1cc(C#CCl)cc(C)c1C1C(=O)C2C(C1=O)[C@H]1CC[C@@H]2O1 (stereo partly drawn) [Compound A-17]
- SEFTA percentage phytotoxicity (Setaria faberi (SETFA) [1]): 100%
- SOLNI percentage phytotoxicity (Solanum nigrum (SOLNI) [2]): 80%
- IPOHE percentage phytotoxicity [3]: 80%
- AMARE percentage phytotoxicity [4]: 100%
- SEFTA percentage phytotoxicity (Setaria faberi (SETFA) [5]): 90%
- SOLNI percentage phytotoxicity (Solanum nigrum (SOLNI) [6]): 70%
- IPOHE percentage phytotoxicity [7]: 70%
- AMARE percentage phytotoxicity [8]: 10%
- pest or weed control at 250 g/ha [9]: 100%
- pest or weed control at 250 g/ha [10]: 80%
- SETFA percentage phytotoxicity (Setaria faberi (SETFA) [11]; 15.625 g/ha application rate): 80%
- SETFA percentage phytotoxicity (Setaria faberi (SETFA) [11]; 62.5 g/ha application rate): 80%
- pest or weed control at 15.625 g/ha [12]: 100%
- pest or weed control at 62.5 g/ha [12]: 100%
- pest or weed control at 15.625 g/ha [13]: 60%
- pest or weed control at 62.5 g/ha [13]: 70%
- pest or weed control at 250 g/ha [14]: 100%
- pest or weed control at 250 g/ha [15]: 80%
